Key:
Assay type in all cases: biochemical
TEC = molecular target: T1, TEC (Homo sapiens, UniProt P42680); assay: PanQinase kinase panel: TEC; details: for inhibition at 1 µM: read-out: INHIBITORY EFFECT @ 1 uM: TEC
T1 construct: purchased Reaction Biology Europe GmbH
T1 sequence (P42680 1-631): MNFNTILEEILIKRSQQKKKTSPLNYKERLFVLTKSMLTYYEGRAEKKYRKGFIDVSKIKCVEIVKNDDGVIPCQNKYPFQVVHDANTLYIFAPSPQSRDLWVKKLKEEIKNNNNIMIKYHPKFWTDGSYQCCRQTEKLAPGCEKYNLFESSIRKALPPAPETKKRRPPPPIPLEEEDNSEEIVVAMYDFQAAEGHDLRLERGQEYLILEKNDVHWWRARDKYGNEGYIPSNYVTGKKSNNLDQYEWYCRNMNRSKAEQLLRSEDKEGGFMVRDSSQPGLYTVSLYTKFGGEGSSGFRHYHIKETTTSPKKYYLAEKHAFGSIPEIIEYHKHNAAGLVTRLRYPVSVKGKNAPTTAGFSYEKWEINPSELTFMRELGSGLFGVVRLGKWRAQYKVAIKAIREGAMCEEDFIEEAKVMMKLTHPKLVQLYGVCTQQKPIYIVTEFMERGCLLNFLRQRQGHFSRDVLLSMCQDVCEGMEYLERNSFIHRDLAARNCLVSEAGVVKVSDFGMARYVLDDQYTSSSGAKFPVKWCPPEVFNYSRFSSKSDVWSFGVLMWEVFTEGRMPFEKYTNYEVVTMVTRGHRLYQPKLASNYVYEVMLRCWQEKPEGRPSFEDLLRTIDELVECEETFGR
Experimental: (§1) Screening procedures were performed in accordance with the company's on-line protocol [accessed on-line Mar.
(§2) For each kinase, the median value of the cpm of three wells was defined as “low control” (n=3). This value reflects unspecific binding of radioactivity to the plate in the absence of a protein kinase but in the presence of the substrate. Additionally, for each kinase the median value of the cpm of three other wells was taken as the “high control,” i.e. full activity in the absence of any inhibitor (n=3). The difference between high and low control of each enzyme was taken as 100% activity.
(§3) As part of the data evaluation the low control of each kinase was subtracted from the high control value as well as from their corresponding “compound values”.

JAK3 = molecular target: T2, JAK3 (Homo sapiens, UniProt P52333); assay: PanQinase kinase panel: JAK3; details: for inhibition at 1 µM: read-out: INHIBITORY EFFECT @ 1 uM: JAK3
T2 construct: purchased Reaction Biology Europe GmbH
T2 sequence (P52333 1-1124): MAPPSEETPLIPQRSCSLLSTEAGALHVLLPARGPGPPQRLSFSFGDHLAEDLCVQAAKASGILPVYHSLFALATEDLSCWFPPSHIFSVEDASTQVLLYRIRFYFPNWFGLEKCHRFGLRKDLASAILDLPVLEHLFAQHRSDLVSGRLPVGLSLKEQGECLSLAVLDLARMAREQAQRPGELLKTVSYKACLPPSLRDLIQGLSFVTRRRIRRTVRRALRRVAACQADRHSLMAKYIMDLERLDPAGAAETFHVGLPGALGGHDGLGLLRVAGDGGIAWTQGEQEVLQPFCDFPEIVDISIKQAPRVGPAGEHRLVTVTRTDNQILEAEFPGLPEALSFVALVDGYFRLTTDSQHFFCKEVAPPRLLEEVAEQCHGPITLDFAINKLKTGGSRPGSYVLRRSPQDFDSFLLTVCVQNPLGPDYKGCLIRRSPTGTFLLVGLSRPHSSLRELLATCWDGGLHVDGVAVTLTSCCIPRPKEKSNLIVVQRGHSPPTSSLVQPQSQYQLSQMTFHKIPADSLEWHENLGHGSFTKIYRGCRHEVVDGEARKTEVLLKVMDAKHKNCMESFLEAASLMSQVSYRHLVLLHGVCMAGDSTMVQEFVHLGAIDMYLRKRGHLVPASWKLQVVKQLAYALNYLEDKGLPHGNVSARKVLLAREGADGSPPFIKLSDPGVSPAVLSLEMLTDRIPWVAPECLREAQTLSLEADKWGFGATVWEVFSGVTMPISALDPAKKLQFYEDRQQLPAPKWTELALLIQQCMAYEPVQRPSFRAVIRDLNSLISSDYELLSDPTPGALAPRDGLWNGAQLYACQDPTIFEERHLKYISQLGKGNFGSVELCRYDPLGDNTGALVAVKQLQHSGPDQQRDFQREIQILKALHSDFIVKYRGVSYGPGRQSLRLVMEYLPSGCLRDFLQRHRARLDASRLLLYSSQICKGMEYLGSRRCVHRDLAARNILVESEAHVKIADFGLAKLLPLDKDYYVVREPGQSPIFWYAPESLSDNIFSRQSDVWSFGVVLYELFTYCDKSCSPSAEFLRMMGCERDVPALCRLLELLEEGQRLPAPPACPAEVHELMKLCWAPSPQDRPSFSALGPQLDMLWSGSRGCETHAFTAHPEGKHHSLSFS
Experimental: as §1, §2, §3

MEKK3 = molecular target: T3, MEKK3 (Homo sapiens, UniProt Q99759); assay: PanQinase kinase panel: MEKK3; details: read-out: INHIBITORY EFFECT @ 1 uM: MEKK3
T3 construct: purchased Reaction Biology Europe GmbH
T3 sequence (Q99759 1-626): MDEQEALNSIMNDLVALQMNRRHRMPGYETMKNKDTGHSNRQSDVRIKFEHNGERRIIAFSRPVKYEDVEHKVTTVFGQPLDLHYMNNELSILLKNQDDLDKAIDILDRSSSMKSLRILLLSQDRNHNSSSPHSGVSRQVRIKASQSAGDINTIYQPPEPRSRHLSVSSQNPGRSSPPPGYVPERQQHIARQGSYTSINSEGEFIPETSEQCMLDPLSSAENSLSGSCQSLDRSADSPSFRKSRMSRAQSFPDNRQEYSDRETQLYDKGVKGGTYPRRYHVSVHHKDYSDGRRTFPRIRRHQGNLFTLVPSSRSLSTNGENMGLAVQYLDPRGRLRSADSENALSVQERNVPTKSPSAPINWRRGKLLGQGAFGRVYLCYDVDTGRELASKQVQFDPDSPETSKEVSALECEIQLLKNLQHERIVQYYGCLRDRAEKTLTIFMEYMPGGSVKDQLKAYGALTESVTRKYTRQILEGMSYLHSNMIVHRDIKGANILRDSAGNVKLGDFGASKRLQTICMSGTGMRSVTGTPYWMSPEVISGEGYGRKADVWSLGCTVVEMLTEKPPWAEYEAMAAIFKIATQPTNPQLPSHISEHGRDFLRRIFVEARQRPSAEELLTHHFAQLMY
Experimental: as §1, §2
As part of the data evaluation the low control of each kinase was subtracted from the high control value as well as from their corresponding “compound values”. The residual activity (in %) for each compound well was calculated by using the following formula: Res. Activity (%)=100×[(signal of compound−low control)/(high control−low control)].

Structure (SMILES)	inhibition at 1 µM (TEC)	inhibition at 1 µM (JAK3)	inhibition at 1 µM (MEKK3)	INHIBITORY EFFECT @ 1 uM: TEC (TEC; 1 uM)	INHIBITORY EFFECT @ 1 uM: JAK3 (JAK3; 1 uM)
O=C(c1ccc(Oc2ccccc2)cc1Cl)c1c[nH]c2ncnc(N[C@@H]3CC[C@@H](CO)OC3)c12 [ARQ-531, (2-chloro-4-phenoxyphenyl) (4-(((3R,6S)-6-(hydroxymethyl)tetrahydro-2H-pyran-3-yl)amino)-7H-pyrrolo[2,3-d]pyrimidin-5-yl) methanone]	90 to 100%	50 to 69%	50 to 69%		
Cc1cccnc1[C@H]1CCC[C@@H](c2ncccc2C)N1CCN1CCN(C(=O)c2ccc(-c3cc4c(-c5cccc(NC(=O)c6ccccc6)c5C)ncnc4[nH]3)cc2)CC1 [Compound I-10, N-(3-(6-(4-(4-(2-((2R,6S)-2,6-bis(3-methylpyridin-2-yl)piperidin-1-yl)ethyl)piperazine-1-carbonyl)phenyl)-7H-pyrrolo[2,3-d]pyrimidin-4-yl)-2-methylphenyl)benzamide]	70 to 89%	< 50%	< 50%		
COc1ccc(F)cc1C(=O)NCc1ccc(-c2nn([C@@H](C)C(F)(F)F)c(N)c2C(N)=O)cc1 [LOXO-305, pirtobrutinib]	90 to 100%	< 50%	< 50%		
C=CC(=O)N1CCC([C@@H]2CCNc3c(C(N)=O)c(-c4ccc(Oc5ccccc5)cc4)nn32)CC1 [Zanubrutinib, (7S)-2-(4-phenoxyphenyl)-7-(1-prop-2-enoylpiperidin-4-yl)-4,5,6,7-tetrahydropyrazolo[1,5-a]pyrimidine-3-carboxamide]			< 50%	++++ (90%-100% Inhibition at 1 uM)	+ (Below 50% Inhibition at 1 uM)
